Assay [1] deals with T1, SST5 (Homo sapiens, UniProt P35346).
T1 construct: purchased Perkin Elmer BioSignal; host or cells: HEK 293
The experiment in a line: GPCR radioligand binding (RLB) assay, somatostatin SST5, [125I]SST-14. The following applies: 10 micromolar compound; recombinant human receptor membranes (HEK 293). In outline: (§1)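 Competition binding against radioligand ([125I]NDP-αMSH for MC4, [125I]SST-14 for SST5) on membranes of HEK 293 cells carrying the human receptor; buffer and incubation time optimized per receptor. Filtration through 0.5% PEI-treated glass fiber, washing, then scintillation counting.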

Assay [2] deals with T2, MC4 (Homo sapiens, UniProt P32245).
T2 construct: purchased Perkin Elmer BioSignal; host or cells: HEK 293
T2 sequence (P32245 whole entry): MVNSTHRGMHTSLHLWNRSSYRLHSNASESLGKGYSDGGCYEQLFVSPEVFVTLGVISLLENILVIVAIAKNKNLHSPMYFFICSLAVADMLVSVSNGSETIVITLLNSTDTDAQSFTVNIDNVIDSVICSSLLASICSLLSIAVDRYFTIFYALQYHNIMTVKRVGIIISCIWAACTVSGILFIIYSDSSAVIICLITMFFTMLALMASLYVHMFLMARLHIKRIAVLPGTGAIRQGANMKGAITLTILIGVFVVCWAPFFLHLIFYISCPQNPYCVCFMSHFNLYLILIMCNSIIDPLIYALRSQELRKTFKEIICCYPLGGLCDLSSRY
The experiment in a line: GPCR radioligand binding (RLB) assay, melanocortin MC4, [125I]NDP-αMSH. The following applies: 10 micromolar compound; recombinant human receptor membranes (HEK 293). The method, boiled down:
as §1

SMILES strings stand for the structures.

T1 sequence (P35346 whole entry): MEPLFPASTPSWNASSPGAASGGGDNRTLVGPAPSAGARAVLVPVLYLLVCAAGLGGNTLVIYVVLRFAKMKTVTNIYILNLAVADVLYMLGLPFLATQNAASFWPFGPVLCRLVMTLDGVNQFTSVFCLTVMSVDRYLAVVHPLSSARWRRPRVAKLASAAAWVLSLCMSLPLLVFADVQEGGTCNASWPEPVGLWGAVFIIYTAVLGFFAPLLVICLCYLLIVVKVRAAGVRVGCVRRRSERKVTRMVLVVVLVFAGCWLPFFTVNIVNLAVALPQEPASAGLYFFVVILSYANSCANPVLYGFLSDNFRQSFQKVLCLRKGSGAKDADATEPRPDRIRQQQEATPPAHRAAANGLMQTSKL

As to `CSC1OC(COCc2ccc3ccccc3c2)C(O)C(OCc2ccc(Cl)cc2)C1NC(=O)CN` (stereo not drawn) [Compound 161], in assay [1], the “SST5 inhibition at 10 micromolar” value is recorded as “+ (Indicates inhibition greater than . . . 50%)”. Moreover, the “MC4 inhibition at 10 micromolar” value in assay [2] is listed as “+ (Indicates inhibition greater than . . . 50%)”.
Take `CSC1OC(COCc2ccc3ccccc3c2)C(O)C(OCc2ccc(Cl)cc2)C1NC(=O)CNC(=N)N` (stereo not drawn) [Compound 162]: the “SST5 inhibition at 10 micromolar” value in assay [1] is “+ (Indicates inhibition greater than . . . 50%)”. The “MC4 inhibition at 10 micromolar” value in assay [2] was “+ (Indicates inhibition greater than . . . 50%)”.
For `CSC1OC(COCc2ccc3ccccc3c2)C(O)C(OCc2ccc(Cl)cc2)C1NC(=O)CCN` (stereo not drawn) [Compound 163], the “SST5 inhibition at 10 micromolar” value in assay [1] is listed as “+ (Indicates inhibition greater than . . . 50%)”. Also, in assay [2], the “MC4 inhibition at 10 micromolar” value is “+ (Indicates inhibition greater than . . . 50%)”.
Turning to `CSC1OC(COCc2ccc3ccccc3c2)C(O)C(OCc2ccc(Cl)cc2)C1NC(=O)CCNC(=N)N` (stereo not drawn) [Compound 164], the “SST5 inhibition at 10 micromolar” value in assay [1] is listed as “+ (Indicates inhibition greater than . . . 50%)”. Further, the “MC4 inhibition at 10 micromolar” value in assay [2] was “+ (Indicates inhibition greater than . . . 50%)”.
Regarding `CSC1OC(COCc2ccc3ccccc3c2)C(O)C(OCc2ccc(Cl)cc2)C1NC(=O)CCCN` (stereo not drawn) [Compound 165], the “SST5 inhibition at 10 micromolar” value in assay [1] is recorded as “+ (Indicates inhibition greater than . . . 50%)”. Further, the “MC4 inhibition at 10 micromolar” value in assay [2] was “+ (Indicates inhibition greater than . . . 50%)”.
Take `CSC1OC(COCc2ccc3ccccc3c2)C(O)C(OCc2ccc(Cl)cc2)C1NC(=O)CCCNC(=N)N` (stereo not drawn) [Compound 166]: the “SST5 inhibition at 10 micromolar” value in assay [1] was “+ (Indicates inhibition greater than . . . 50%)”. Moreover, the “MC4 inhibition at 10 micromolar” value in assay [2] is “+ (Indicates inhibition greater than . . . 50%)”.
On to `CSC1OC(COCc2ccccc2)C(O)C(OCc2ccc(-c3ccccc3)cc2)C1NC(=O)CN` (stereo not drawn) [Compound 167], for which the “SST5 inhibition at 10 micromolar” value in assay [1] was “+ (Indicates inhibition greater than . . . 50%)”. Moreover, the “MC4 inhibition at 10 micromolar” value in assay [2] is reported as “+ (Indicates inhibition greater than . . . 50%)”.
As for `CSC1OC(COCc2ccccc2)C(O)C(OCc2ccc(-c3ccccc3)cc2)C1NC(=O)CNC(=N)N` (stereo not drawn) [Compound 168], the “SST5 inhibition at 10 micromolar” value in assay [1] was “+ (Indicates inhibition greater than . . . 50%)”. Moreover, in assay [2], the “MC4 inhibition at 10 micromolar” value is listed as “+ (Indicates inhibition greater than . . . 50%)”.
As to `CSC1OC(COCc2ccccc2)C(O)C(OCc2ccc(-c3ccccc3)cc2)C1NC(=O)CCN` (stereo not drawn) [Compound 169], the “SST5 inhibition at 10 micromolar” value in assay [1] is on record as “+ (Indicates inhibition greater than . . . 50%)”. Moreover, in assay [2], the “MC4 inhibition at 10 micromolar” value is recorded as “+ (Indicates inhibition greater than . . . 50%)”.
Take `CSC1OC(COCc2ccccc2)C(O)C(OCc2ccc(-c3ccccc3)cc2)C1NC(=O)CCNC(=N)N` (stereo not drawn) [Compound 170]: in assay [1], the “SST5 inhibition at 10 micromolar” value is recorded as “+ (Indicates inhibition greater than . . . 50%)”. The “MC4 inhibition at 10 micromolar” value in assay [2] was “+ (Indicates inhibition greater than . . . 50%)”.
For `CSC1OC(COCc2ccccc2)C(O)C(OCc2ccc(-c3ccccc3)cc2)C1NC(=O)CCCN` (stereo not drawn) [Compound 171], in assay [1], the “SST5 inhibition at 10 micromolar” value is “+ (Indicates inhibition greater than . . . 50%)”. Besides, in assay [2], the “MC4 inhibition at 10 micromolar” value is listed as “+ (Indicates inhibition greater than . . . 50%)”.
Take `CSC1OC(COCc2ccccc2)C(O)C(OCc2ccc(-c3ccccc3)cc2)C1NC(=O)CCCNC(=N)N` (stereo not drawn) [Compound 172]: the “SST5 inhibition at 10 micromolar” value in assay [1] is “+ (Indicates inhibition greater than . . . 50%)”. Further, in assay [2], the “MC4 inhibition at 10 micromolar” value is “+ (Indicates inhibition greater than . . . 50%)”.
In the case of `CSC1OC(COCc2ccc(Cl)cc2)C(O)C(OCc2ccc(-c3ccccc3)cc2)C1NC(=O)CN` (stereo not drawn) [Compound 173], in assay [1], the “SST5 inhibition at 10 micromolar” value is “+ (Indicates inhibition greater than . . . 50%)”. For the same compound, in assay [2], the “MC4 inhibition at 10 micromolar” value is reported as “+ (Indicates inhibition greater than . . . 50%)”.
As to `CSC1OC(COCc2ccc(Cl)cc2)C(O)C(OCc2ccc(-c3ccccc3)cc2)C1NC(=O)CNC(=N)N` (stereo not drawn) [Compound 174], in assay [1], the “SST5 inhibition at 10 micromolar” value was “+ (Indicates inhibition greater than . . . 50%)”. The “MC4 inhibition at 10 micromolar” value in assay [2] is recorded as “+ (Indicates inhibition greater than . . . 50%)”.
`CSC1OC(COCc2ccc(Cl)cc2)C(O)C(OCc2ccc(-c3ccccc3)cc2)C1NC(=O)CCN` (stereo not drawn) [Compound 175]: the “SST5 inhibition at 10 micromolar” value in assay [1] is recorded as “+ (Indicates inhibition greater than . . . 50%)”. In addition, in assay [2], the “MC4 inhibition at 10 micromolar” value is “+ (Indicates inhibition greater than . . . 50%)”.
As for `CSC1OC(COCc2ccc(Cl)cc2)C(O)C(OCc2ccc(-c3ccccc3)cc2)C1NC(=O)CCNC(=N)N` (stereo not drawn) [Compound 176], in assay [1], the “SST5 inhibition at 10 micromolar” value is on record as “+ (Indicates inhibition greater than . . . 50%)”. In addition, in assay [2], the “MC4 inhibition at 10 micromolar” value is given as “+ (Indicates inhibition greater than . . . 50%)”.
Take `CSC1OC(COCc2ccc(Cl)cc2)C(O)C(OCc2ccc(-c3ccccc3)cc2)C1NC(=O)CCCN` (stereo not drawn) [Compound 177]: in assay [1], the “SST5 inhibition at 10 micromolar” value is “+ (Indicates inhibition greater than . . . 50%)”. Besides, the “MC4 inhibition at 10 micromolar” value in assay [2] is given as “+ (Indicates inhibition greater than . . . 50%)”.
As to `CSC1OC(COCc2ccc(Cl)cc2)C(O)C(OCc2ccc(-c3ccccc3)cc2)C1NC(=O)CCCNC(=N)N` (stereo not drawn) [Compound 178], the “SST5 inhibition at 10 micromolar” value in assay [1] is “+ (Indicates inhibition greater than . . . 50%)”. For the same compound, in assay [2], the “MC4 inhibition at 10 micromolar” value was “+ (Indicates inhibition greater than . . . 50%)”.
As to `CSC1OC(COCc2ccc(-c3ccccc3)cc2)C(O)C(OCc2ccc(-c3ccccc3)cc2)C1NC(=O)CN` (stereo not drawn) [Compound 179], the “SST5 inhibition at 10 micromolar” value in assay [1] is listed as “+ (Indicates inhibition greater than . . . 50%)”. Also, the “MC4 inhibition at 10 micromolar” value in assay [2] is recorded as “+ (Indicates inhibition greater than . . . 50%)”.
Take `CSC1OC(COCc2ccc(-c3ccccc3)cc2)C(O)C(OCc2ccc(-c3ccccc3)cc2)C1NC(=O)CNC(=N)N` (stereo not drawn) [Compound 180]: the “SST5 inhibition at 10 micromolar” value in assay [1] was “+ (Indicates inhibition greater than . . . 50%)”. Further, the “MC4 inhibition at 10 micromolar” value in assay [2] is given as “+ (Indicates inhibition greater than . . . 50%)”.
Consider `CSC1OC(COCc2ccc(-c3ccccc3)cc2)C(O)C(OCc2ccc(-c3ccccc3)cc2)C1NC(=O)CCN` (stereo not drawn) [Compound 181], for which the “SST5 inhibition at 10 micromolar” value in assay [1] was “+ (Indicates inhibition greater than . . . 50%)”. In assay [2], the “MC4 inhibition at 10 micromolar” value is reported as “+ (Indicates inhibition greater than . . . 50%)”.
For the compound `CSC1OC(COCc2ccc(-c3ccccc3)cc2)C(O)C(OCc2ccc(-c3ccccc3)cc2)C1NC(=O)CCNC(=N)N` (stereo not drawn) [Compound 182], in assay [1], the “SST5 inhibition at 10 micromolar” value was “+ (Indicates inhibition greater than . . . 50%)”. In assay [2], the “MC4 inhibition at 10 micromolar” value is reported as “+ (Indicates inhibition greater than . . . 50%)”.
For `CSC1OC(COCc2ccc(-c3ccccc3)cc2)C(O)C(OCc2ccc(-c3ccccc3)cc2)C1NC(=O)CCCN` (stereo not drawn) [Compound 183], in assay [1], the “SST5 inhibition at 10 micromolar” value was “+ (Indicates inhibition greater than . . . 50%)”. Moreover, in assay [2], the “MC4 inhibition at 10 micromolar” value is listed as “+ (Indicates inhibition greater than . . . 50%)”.
With `CSC1OC(COCc2ccc3ccccc3c2)C(O)C(OCc2ccc(-c3ccccc3)cc2)C1NC(=O)CNC(=N)N` (stereo not drawn) [Compound 186], the “SST5 inhibition at 10 micromolar” value in assay [1] is listed as “+ (Indicates inhibition greater than . . . 50%)”. In assay [2], the “MC4 inhibition at 10 micromolar” value is given as “+ (Indicates inhibition greater than . . . 50%)”.
`CSC1OC(COCc2ccc3ccccc3c2)C(O)C(OCc2ccc(-c3ccccc3)cc2)C1NC(=O)CCN` (stereo not drawn) [Compound 187]: the “SST5 inhibition at 10 micromolar” value in assay [1] is given as “+ (Indicates inhibition greater than . . . 50%)”. In addition, the “MC4 inhibition at 10 micromolar” value in assay [2] is “+ (Indicates inhibition greater than . . . 50%)”.
In the case of `CSC1OC(COCc2ccc3ccccc3c2)C(O)C(OCc2ccc(-c3ccccc3)cc2)C1NC(=O)CCNC(=N)N` (stereo not drawn) [Compound 188], in assay [1], the “SST5 inhibition at 10 micromolar” value is listed as “+ (Indicates inhibition greater than . . . 50%)”. Further, the “MC4 inhibition at 10 micromolar” value in assay [2] was “+ (Indicates inhibition greater than . . . 50%)”.
In the case of `CSC1OC(COCc2ccc3ccccc3c2)C(O)C(OCc2ccc(-c3ccccc3)cc2)C1NC(=O)CCCN` (stereo not drawn) [Compound 189], the “SST5 inhibition at 10 micromolar” value in assay [1] is recorded as “+ (Indicates inhibition greater than . . . 50%)”. The “MC4 inhibition at 10 micromolar” value in assay [2] is “+ (Indicates inhibition greater than . . . 50%)”.
Take `CSC1OC(COCc2ccc3ccccc3c2)C(O)C(OCc2ccc(-c3ccccc3)cc2)C1NC(=O)CCCNC(=N)N` (stereo not drawn) [Compound 190]: the “SST5 inhibition at 10 micromolar” value in assay [1] is on record as “+ (Indicates inhibition greater than . . . 50%)”. The “MC4 inhibition at 10 micromolar” value in assay [2] was “+ (Indicates inhibition greater than . . . 50%)”.
Turning to `CSC1OC(COCc2ccccc2)C(O)C(OCc2ccc3ccccc3c2)C1NC(=O)CN` (stereo not drawn) [Compound 191], the “SST5 inhibition at 10 micromolar” value in assay [1] is reported as “+ (Indicates inhibition greater than . . . 50%)”. Also, in assay [2], the “MC4 inhibition at 10 micromolar” value was “+ (Indicates inhibition greater than . . . 50%)”.
`CSC1OC(COCc2ccccc2)C(O)C(OCc2ccc3ccccc3c2)C1NC(=O)CNC(=N)N` (stereo not drawn) [Compound 192]: in assay [1], the “SST5 inhibition at 10 micromolar” value is listed as “+ (Indicates inhibition greater than . . . 50%)”. For the same compound, the “MC4 inhibition at 10 micromolar” value in assay [2] was “+ (Indicates inhibition greater than . . . 50%)”.
Turning to `CSC1OC(COCc2ccccc2)C(O)C(OCc2ccc3ccccc3c2)C1NC(=O)CCNC(=N)N` (stereo not drawn) [Compound 194], the “SST5 inhibition at 10 micromolar” value in assay [1] is “+ (Indicates inhibition greater than . . . 50%)”. Moreover, in assay [2], the “MC4 inhibition at 10 micromolar” value was “+ (Indicates inhibition greater than . . . 50%)”.
With `CSC1OC(COCc2ccccc2)C(O)C(OCc2ccc3ccccc3c2)C1NC(=O)CCCN` (stereo not drawn) [Compound 195], the “SST5 inhibition at 10 micromolar” value in assay [1] was “+ (Indicates inhibition greater than . . . 50%)”. For the same compound, the “MC4 inhibition at 10 micromolar” value in assay [2] is on record as “+ (Indicates inhibition greater than . . . 50%)”.
As for `CSC1OC(COCc2ccccc2)C(O)C(OCc2ccc3ccccc3c2)C1NC(=O)CCCNC(=N)N` (stereo not drawn) [Compound 196], the “SST5 inhibition at 10 micromolar” value in assay [1] is reported as “+ (Indicates inhibition greater than . . . 50%)”. Also, in assay [2], the “MC4 inhibition at 10 micromolar” value is reported as “+ (Indicates inhibition greater than . . . 50%)”.

The record behind these values is patent US7994140B2, “Classes of compounds that interact with GPCRs” (Alchemia Limited, priority 2002, dated 2011).
